Test results published in patent US8592597B2, “Pyrrole compounds” (Takeda Pharmaceutical Company Limited, priority 2008, dated 2013).
Where a name gives a salt, the structure may show the parent alone.

Legend:
HepG2 = test: ATP content test; assay type: cell-based, Human; settings: HepG2, 100 μM, culture for one day, relative value to control (without drug)
Method: (§1) Human liver cancer-derived cell line HepG2 (ATCC No. HB-8065) was passaged using Dulbecco's Modified Eagle medium (DMEM; Invitrogen) containing 10% fetal bovine serum (FBS; TRACE SCIENTIFIC LTD.), 1 mmol/L sodium pyruvate (Invitrogen), 2 mmol/L L-glutamine (Invitrogen), 50 IU/mL penicillin (Invitrogen) and 50 μg/mL streptomycin (Invitrogen) at 5% CO2, 37° C. The test reagent was prepared with DMSO to 10 mM, and further diluted with DMEM medium containing 0.5% FBS, 1 mmol/L sodium pyruvate, 2 mmol/L L-glutamine, 50 IU/mL penicillin and 50 μg/mL streptomycin to a final concentration of DMSO of 0.1%. HepG2 (2×10^4 cells/well) was cultured on a 96 well white plate (Costar) with the test reagent at 5% CO2, 37° C. After culture for one day, the intracellular ATP content was measured using ATPLITE™ (PerkinElmer Life Sciences). The results are shown in Table 4 (n≧3, average value ±SD) as a relative value (%) to control (without addition of drug).

[1] = target: T1, proton, potassium-adenosine triphosphatase (H+/K+-ATPase) (Sus scrofa, UniProt P19156); test: Proton potassium-adenosine triphosphatase (H+,K+-ATPase) inhibitory activity test; assay type: biochemical; settings: swine gastric mucous membrane microsomal fraction, pH 6.5, 37° C.
T1 construct: a gastric mucous membrane microsomal fraction was prepared from the stomach of swine; from tissue; host or cells: swine stomach, gastric mucous membrane microsomal fraction
Method: According to the method [Biochim. Biophys. Acta, 728, 31 (1983)] of Wallmark et al., a gastric mucous membrane microsomal fraction was prepared from the stomach of swine. First, the stomach was removed, washed with tap water, immersed in 3 mol/L brine, and the surface of the mucous membrane was wiped with a paper towel. The gastric mucous membrane was detached, chopped, and homogenized in a 0.25 mol/L saccharose solution (pH 6.8) containing 1 mmol/L EDTA and 10 mmol/L tris-hydrochloric acid using polytron (Kinematica). The obtained homogenate was centrifuged at 20,000×g for 30 min and the supernatant was centrifuged at 100,000×g for 90 min. The precipitate was suspended in 0.25 mol/L saccharose solution, superimposed on a 0.25 mol/L saccharose solution containing 7.5% Ficoll, and centrifuged at 100,000×g for 5 hr. The fraction containing the interface between the both layers was recovered, and centrifugally washed with 0.25 mol/L saccharose solution. The obtained microsomal fraction was used as a proton, potassium-adenosine triphosphatase standard product.
To 40 μL of a 50 mmol/L HEPES-tris buffer (5 mmol/L magnesium chloride, 10 mmol/L potassium chloride, 10 μmol/L valinomycin, pH=6.5) containing 2.5 μg/mL (based on the protein concentration) of the enzyme standard product was added a test compound (5 μL) dissolved in a 10% aqueous dimethyl sulfoxide solution, and the mixture was incubated at 37° C. for 30 min. The enzyme reaction was started by adding 5 μL of a 2 mmol/L adenosine triphosphate tris salt solution (50 mmol/L HEPES-tris buffer (5 mmol/L magnesium chloride, pH 6.5)). The enzyme reaction was carried out at 37° C. for 20 min, and 15 μL of a malachite green solution (0.12% malachite green solution in sulfuric acid (2.5 mol/L), 7.5% ammonium molybdate and 11% Tween 20 were mixed at a ratio of 100:25:2) was added to quench the reaction. After allowing to stand at room temperature for 15 min, the resulting reaction product of inorganic phosphorus with malachite green was colorimetrically determined at a wavelength of 620 nm. In addition, the amount of the inorganic phosphoric acid in the reaction solution free of potassium chloride was measured in the same manner, which was subtracted from the inorganic phosphoric acid amount in the presence of potassium chloride to determine the proton, potassium-adenosine triphosphatase activity. The inhibitory rate (%) was determined from the activity value of the control and the activity values of various concentrations of the test compound, and the 50% inhibitory concentration (IC50) of the proton, potassium-adenosine triphosphatase was determined.

[2] = test system: Caspase-3/7 activity in HepG2 cells; test: Caspase-3/7 activity test; assay type: cell-based, Human; settings: HepG2, 100 μM, culture for one day, relative to maximum with Staurosporine (100%) and no reagent (0%)
Method: as §1
The Caspase-3/7 activity in the cells cultured for one day by a method similar to that in Experimental Example 3 was measured using CASPASE-GLO 3/7 Assay (Promega). The results are shown in Table 4 (n≧3, average value ±SD) as relative activity (%) of each reagent based on the maximum value of Caspase-3/7 activity when exposed to Staurosporine (100%), and the activity without addition of a test reagent (0%).

T1 sequence (P19156 2-1034 limits assumed): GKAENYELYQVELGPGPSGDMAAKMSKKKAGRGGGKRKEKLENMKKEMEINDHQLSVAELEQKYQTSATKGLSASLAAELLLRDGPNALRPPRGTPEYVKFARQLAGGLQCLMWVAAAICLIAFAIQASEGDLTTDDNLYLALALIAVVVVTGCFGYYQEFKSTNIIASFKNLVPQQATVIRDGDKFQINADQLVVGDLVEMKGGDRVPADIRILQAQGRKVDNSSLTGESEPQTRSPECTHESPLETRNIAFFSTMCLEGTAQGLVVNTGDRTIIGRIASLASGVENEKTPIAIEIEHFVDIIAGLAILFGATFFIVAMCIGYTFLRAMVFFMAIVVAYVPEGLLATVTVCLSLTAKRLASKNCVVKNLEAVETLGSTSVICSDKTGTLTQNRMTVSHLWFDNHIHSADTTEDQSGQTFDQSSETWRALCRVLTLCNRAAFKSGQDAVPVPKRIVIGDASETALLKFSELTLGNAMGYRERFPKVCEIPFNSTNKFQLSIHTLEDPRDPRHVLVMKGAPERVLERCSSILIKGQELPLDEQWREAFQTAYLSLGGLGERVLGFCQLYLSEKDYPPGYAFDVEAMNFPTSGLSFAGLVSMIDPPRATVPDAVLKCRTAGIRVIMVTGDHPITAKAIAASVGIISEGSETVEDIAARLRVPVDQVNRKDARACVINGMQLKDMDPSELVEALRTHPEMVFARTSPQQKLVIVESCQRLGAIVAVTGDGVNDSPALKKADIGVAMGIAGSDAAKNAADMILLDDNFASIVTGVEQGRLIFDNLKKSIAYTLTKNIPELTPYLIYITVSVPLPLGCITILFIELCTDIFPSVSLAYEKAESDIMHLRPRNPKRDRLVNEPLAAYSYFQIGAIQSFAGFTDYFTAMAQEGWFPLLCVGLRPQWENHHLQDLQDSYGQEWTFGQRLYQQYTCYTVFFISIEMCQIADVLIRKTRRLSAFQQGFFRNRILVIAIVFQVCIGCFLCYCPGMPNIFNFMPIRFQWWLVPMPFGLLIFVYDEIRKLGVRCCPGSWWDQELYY
T1 sequence (P18434 whole entry partner): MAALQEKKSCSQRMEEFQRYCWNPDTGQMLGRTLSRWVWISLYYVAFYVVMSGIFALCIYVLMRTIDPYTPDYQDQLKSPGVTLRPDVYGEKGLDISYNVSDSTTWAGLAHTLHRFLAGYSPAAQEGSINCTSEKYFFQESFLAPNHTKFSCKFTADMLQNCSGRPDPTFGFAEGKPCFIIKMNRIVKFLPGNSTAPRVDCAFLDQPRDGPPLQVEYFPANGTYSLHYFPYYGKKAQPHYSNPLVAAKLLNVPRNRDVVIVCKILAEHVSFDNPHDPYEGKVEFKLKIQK

SMILES: CNCc1cn(S(=O)(=O)c2cc(C)ccn2)c(-c2cccnc2F)c1F [Example 2, 1-{4-Fluoro-5-(2-fluoropyridin-3-yl)-1-[(4-methylpyridin-2-yl)sulfonyl]-1H-pyrrol-3-yl}-N-methylmethanamine hydrochloride]
- ATP content (%, 100 μM) (HepG2): 85.5%
- IC50 [1]: 100 nM
- Caspase-3/7 activity (%, 100 μM) [2]: −1.1%

SMILES: CNCc1cn(S(=O)(=O)c2ccc(F)cn2)c(-c2cccnc2F)c1F [Example 3, 1-{4-Fluoro-5-(2-fluoropyridin-3-yl)-1-[(5-fluoropyridin-2-yl)sulfonyl]-1H-pyrrol-3-yl}-N-methylmethanamine hydrochloride]
- ATP content (%, 100 μM) (HepG2): 86.5%
- IC50 [1]: 100 nM
- Caspase-3/7 activity (%, 100 μM) [2]: −0.5%

SMILES: CNCc1cn(S(=O)(=O)c2cc(OC)ccn2)c(-c2cccnc2F)c1F [Example 4, 1-{4-Fluoro-5-(2-fluoropyridin-3-yl)-1-[(4-methoxypyridin-2-yl)sulfonyl]-1H-pyrrol-3-yl}-N-methylmethanamine hydrochloride]
- ATP content (%, 100 μM) (HepG2): 84.5%
- IC50 [1]: 140 nM
- Caspase-3/7 activity (%, 100 μM) [2]: −0.6%

SMILES: CNCc1cn(S(=O)(=O)c2cncc(F)c2)c(-c2cccnc2F)c1F [Example 5, 1-{4-Fluoro-5-(2-fluoropyridin-3-yl)-1-[(5-fluoropyridin-3-yl)sulfonyl]-1H-pyrrol-3-yl}-N-methylmethanamine hydrochloride]
- ATP content (%, 100 μM) (HepG2): 88.9%
- IC50 [1]: 200 nM
- Caspase-3/7 activity (%, 100 μM) [2]: 0.3%

SMILES: CNCc1cn(S(=O)(=O)c2ccc(C)nc2)c(-c2cccnc2F)c1F [Example 8, 1-{4-Fluoro-5-(2-fluoropyridin-3-yl)-1-[(6-methylpyridin-3-yl)sulfonyl]-1H-pyrrol-3-yl}-N-methylmethanamine 0.5 fumarate]
- ATP content (%, 100 μM) (HepG2): 76.7%
- IC50 [1]: 180 nM
- Caspase-3/7 activity (%, 100 μM) [2]: 2.4%

SMILES: CNCc1cn(S(=O)(=O)c2ccc(OC)cn2)c(-c2cccnc2F)c1F [Example 10, 1-{4-Fluoro-5-(2-fluoropyridin-3-yl)-1-[(5-methoxypyridin-2-yl)sulfonyl]-1H-pyrrol-3-yl}-N-methylmethanamine hydrochloride]
- ATP content (%, 100 μM) (HepG2): 80.0%
- IC50 [1]: 280 nM
- Caspase-3/7 activity (%, 100 μM) [2]: 0.9%

SMILES: CNCc1cn(S(=O)(=O)c2cc(C)ccn2)c(-c2cccnc2F)c1F [Example 23, 1-{4-Fluoro-5-(2-fluoropyridin-3-yl)-1-[(4-methylpyridin-2-yl)sulfonyl]-1H-pyrrol-3-yl}-N-methylmethanamine fumarate]
- IC50 [1]: 83 nM

SMILES: CNCc1cn(S(=O)(=O)c2cc(C)ccn2)c(-c2cccnc2F)c1F [Example 24, 1-{4-Fluoro-5-(2-fluoropyridin-3-yl)-1-[(4-methylpyridin-2-yl)sulfonyl]-1H-pyrrol-3-yl}-N-methylmethanamine succinate]
- IC50 [1]: 140 nM

SMILES: CNCc1cn(S(=O)(=O)c2cncc(F)c2)c(-c2cccnc2F)c1F [Example 25, 1-{4-Fluoro-5-(2-fluoropyridin-3-yl)-1-[(5-fluoropyridin-3-yl)sulfonyl]-1H-pyrrol-3-yl}-N-methylmethanamine 0.5 fumarate]
- IC50 [1]: 200 nM

SMILES: CNCc1cn(S(=O)(=O)c2cncc(F)c2)c(-c2cccnc2F)c1F [Example 26, 1-{4-Fluoro-5-(2-fluoropyridin-3-yl)-1-[(5-fluoropyridin-3-yl)sulfonyl]-1H-pyrrol-3-yl}-N-methylmethanamine succinate]
- IC50 [1]: 130 nM

SMILES: CNCc1cn(S(=O)(=O)c2cncc(F)c2)c(-c2cccnc2F)c1F [Example 27, 1-{4-Fluoro-5-(2-fluoropyridin-3-yl)-1-[(5-fluoropyridin-3-yl)sulfonyl]-1H-pyrrol-3-yl}-N-methylmethanamine L-tartrate]
- IC50 [1]: 160 nM
